Reference: US8598124B2, “Peptides derived from HMG-CoA reductase and cosmetic and/or pharmaceutical composition containing same” (ISP Investments Inc., priority 2008, dated 2013)
Where no end group is shown, it is not given here.

Tests used:
Assay type in all cases: cell-based
[1] = tested on: normal human dermal fibroblasts; experiment: Ultrastructural study of caveolae in human fibroblasts; settings: 0.5 ppm (1% of stock solution at 50 ppm), 48 hours
Experimental: The goal of this study is to study at the ultrastructural level the caveolae in human dermal fibroblasts.
Protocol: Normal human dermal fibroblasts in culture are treated with a 1% stock solution at 50 ppm of peptide SEQ ID No. 4 for 48 hours (the medium in the presence of the active ingredient is changed every 24 hours).

[2] = tested on: HMG-CoA reductase; experiment: Expression of HMG-CoA reductase in normal human keratinocytes (immunofluorescence); settings: 0.5 ppm, 48 hours
Experimental: The goal of this study is to determine the influence of peptide SEQ ID No. 4 on the expression of HMG-CoA reductase in normal human keratinocytes.
Protocol: Normal human dermal keratinocytes in culture are treated with a 1% stock solution at 50 ppm of peptide SEQ ID No. 4 for 48 hours (the medium in the presence of the active ingredient is changed every 24 hours). The cells are then washed and fixed in cold methanol for 4 minutes at 4° C. The cells are incubated in the presence of a polyclonal rabbit antibody specific for HMG-CoA reductase (Millipore, Upstate), and then a secondary antibody coupled with a fluorescent dye. The cells are then examined by epifluorescence microscope (Nikon Eclipse E600 microscope).

[3] = tested on: normal human keratinocytes; experiment: Ultrastructural study of lamellar bodies in human keratinocytes (transmission electron microscopy); settings: 48 hours
Experimental: The goal of this study is to study in an ultrastructural manner, in transmission electron microscopy, keratinocytes treated by peptide SEQ ID No. 5 at 0.5 ppm.
Normal human keratinocytes in culture are treated with a 1% stock solution at 50 ppm of peptide SEQ ID No. 5 for 48 hours (the medium in the presence of the active ingredient is changed every 24 hours). The cells are washed in PBS, and then are fixed by Karnosky hypertonic fixation (4% paraformaldehyde, 5% glutaraldehyde in a 0.08M phosphate buffer) 1 hour at ambient temperature and then 24 hours at 4° C. The cells are detached from the support by scraping and centrifuged 5 minutes at 1000 rpm. The supernatant is eliminated and a 1M sodium cacodylate buffer is deposited on the residue. The cells are mixed with 2% agar and then postfixed by osmium tetraoxide for 1 hour. The specimens are then dehydrated by successive passages in a series of alcohol (from 50 to 100%). The cells are then coated in a resin. The polymerization is carried out for approximately 12 hours at 60° C. Semi-thin sections of 0.5 μm are made with an ultramicrotome. The sections are deposited on a heat bonded slide and then colored with toluidine blue. The slides are then dehydrated again and mounted in a suitable medium. […]

[4] = tested on: normal human keratinocytes; experiment: Differentiation study of human keratinocytes (pankeratin immunofluorescence); settings: 0.5 ppm, 48 hours, anti-cytopankeratin antibody, epifluorescence microscope
Experimental: The goal of this study is to determine the influence of peptide SEQ ID No. 5 on epidermal differentiation.
Protocol: Normal human keratinocytes in culture are treated with a 1% stock solution at 50 ppm of peptide SEQ ID No. 4 for 48 hours (the medium in the presence of the active ingredient is changed every 24 hours). The cells are then washed and fixed with cold methanol for 4 minutes at 4° C.

[5] = tested on: normal human keratinocytes; experiment: Protective effect on skin cells subjected to UVB radiation (MTT cellular viability); settings: 0.5 ppm, 24 hours before and 24 hours after UVB 50 mJ/cm^2, versus untreated irradiated control
Experimental: The goal of this study is to determine the protective effect of peptide SEQ ID No. 5 with relation to normal human keratinocytes subjected to stress by UVB radiation. To do this, cellular viability tests were conducted by the MTT technique.
Protocol: The normal human keratinocytes are treated with a 1% solution, a solution at 50 ppm of peptide SEQ ID No. 5, for 24 hours, irradiated by UVB (50 mJ/cm^2) and then cultivated again 24 hours in the presence of the same concentration of peptide SEQ ID No. 5. Untreated and irradiated controls are carried out under the same conditions. At the end of the experiment, the cells are incubated in a solution containing 0.1 mg/ml of MTT (3-[4,5-dimethylthiazol-2-yl]-2,5-diphenyltetrazolium bromide). This compound is absorbed by the living cells and then metabolized by mitochondrial enzymes into a blue violet compound, formazan, that will be assayed by spectrophotometry at 540 nm. The optical density (O.D.) Is then directly proportional to the mitochondrial enzymatic activity as well as to the number of living cells.

[6] = tested on: HMG-CoA reductase; experiment: Expression of HMG-CoA reductase in skin biopsies (immunolabelling); settings: 0.5 ppm applied topically on human skin samples in culture, 24 hours or 48 hours
Experimental: The goal of this study is to determine the influence of peptide SEQ ID No. 5 on the expression of HMG-CoA reductase.
Protocol: Samples of human skin are placed in culture at the air/liquid interface. A 1% stock solution at 50 ppm of peptide SEQ ID No. 5 is applied topically and then the samples are incubated for 24 hours or 48 hours.
These skin samples are then fixed with formaldehyde and then enclosed in paraffin. Sections of 2 to 3 μm are then made. Immunolabelling is carried out after unmasking the specific sites by microwave treatment and then incubation in trypsin. Immunolabelling is carried out by using a polyclonal rabbit antibody specific for HMG-CoA reductase (Millipore, Upstate), and then a secondary antibody, coupled with a fluorescent dye. The skin sections are then examined by epifluorescence microscope (Nikon Eclipse E600 microscope).

Row | Substance | caveolae in treated cells in comparison with untreated control cells [1] | HMG-CoA reductase cytoplasmic immunofluorescence in treated cells [2] | Golgi complex development / production of lamellar bodies (Odland bodies) versus control cells ([3]; 0.5 ppm (1% of stock solution at 50 ppm), transmission electron microscopy) | lipid synthesis in normal human keratinocytes ([3]; 0.5 ppm, inferred from ultrastructural study) | expression of pankeratins [4] | increase of cellular viability after UVB irradiation (MTT) [5] [%] | HMG-CoA reductase immunofluorescence in the upper layers of the epidermis, relative to untreated control [6]
1 | Arg-Gly-Lys-Ser (RGKS) [Peptide SEQ ID No. 4] | significant increase in caveolae | more intense cytoplasmic fluorescence | – | – | – | – | –
2 | Arg-Gly-Lys-Ser-NH2 (RGKS-NH2) [Peptide SEQ ID No. 5] | – | – | Golgi complex is substantially more developed than in the control cells | capable of inducing an increase in lipid synthesis | increases the expression of pankeratins | 16 | stronger fluorescence
